Read-outs that look alike come from different tables or passages of the source.
What was measured:
Format in all cases: in vivo
[1] = system: Myzus persicae (Green peach aphid); test: Myzus persicae sucrose solution / Parafilm feeding test; conditions: 120 h, read-out: mortality of Myzus persicae
From the text: (§1) The pesticidal/insecticidal properties of the compounds according to embodiments 1 or 2 can be illustrated via the following tests: Spodoptera littoralis (Egyptian cotton leaf worm) • Cotton leaf discs were placed onto agar in 24-well microtiter plates and sprayed with aqueous test solutions prepared from 10'000 ppm DMSO stock solutions. After drying the leaf discs were infested with five L1 larvae. […] Plutella xylostella (Diamond back moth): 24-well microtiter plates with artificial diet were treated with aqueous test solutions prepared from 10'000 ppm DMSO stock solutions by pipetting. After drying, the plates were infested with L2 larvae (10 to 15 per well). The samples were assessed for mortality and growth inhibition in comparison to untreated samples 5 days after infestation. […] Diabrotica balteata, (Corn root worm) • Maize sprouts placed onto an agar layer in 24-well microtiter plates were treated with aqueous test solutions prepared from 10'000 ppm DMSO stock solutions by spraying. After drying, the plates were infested with L2 larvae (6 to 10 per well). […] Thrips tabaci (Onion thrips): Sunflower leaf discs were placed on agar in 24-well microtiter plates and sprayed with aqueous test solutions prepared from 10'000 ppm DMSO stock solutions. After drying the leaf discs were infested with a thrips population of mixed ages. The samples were assessed for mortality 6 days after infestation. […] Tetranychus urticae (Two-spotted spider mite): Bean leaf discs on agar in 24-well microtiter plates were sprayed with aqueous test solutions prepared from 10'000 ppm DMSO stock solutions. After drying the leaf discs were infested with a mite population of mixed ages. The samples were assessed for mortality on mixed population (mobile stages) 8 days after infestation. […] Euschistus heros (Neotropical Brown Stink Bug): • Two weeks old soybean plants were sprayed in a turn table spray chamber with the diluted spray solutions. After drying 2 soybean seeds were added and plants were infested with 10 N2 nymphs of the neotropical brown stink bug Euschistus heros in plastic test boxes. The samples were assessed for mortality in comparison to untreated samples 5 days after infestation. • The following compounds gave at least 80% mortality of Euschistus heros at an application rate of 12.5 ppm: Compounds 3 , 4 , 8 , 39 , 43 , 44 , 46 , 75 , 76 , 77 , 78 , 79 , 80 , 81 , 82 , 88 , 90 , 93 and 95 . Myzus persicae (Green peach aphid): Sunflower leaf discs were placed on agar in a 24-well microtiter plate and sprayed with test solutions at an application rate of 200 ppm. After drying, the leaf discs were infested with an aphid population of mixed ages. After an incubation period of 6 DAT, samples were checked for mortality. The following compounds gave at least 50% mortality of Myzus persicae: Compounds 3 , 4 , 8 , 43 , 44 , 75 , 76 , 77 , 80 , 81 , 90 and 92 . Myzus persicae (Green peach aphid): • Test compounds were applied by pipette into 24 well plates and mixed with Sucrose solution. Application rate: 12.5ppm. The plates were closed with a stretched parafilm. A plastic stencil with 24 holes is placed onto the plate and infested pea seedlings were placed directly on the Parafilm. The infested plate is closed with a gel blotting paper and another plastic stencil and then turned upside down. […]

[2] = system: Spodoptera littoralis (Egyptian cotton leaf worm); test: Spodoptera littoralis cotton leaf disc spray test, L1 larvae; conditions: foliar, 72 h
From the text: as §1

[3] = system: Plutella xylostella (Diamond back moth); test: Plutella xylostella artificial diet test, L2 larvae; conditions: 120 h, application rate of 200 ppm, mortality and growth inhibition 5 days after infestation
From the text: as §1

[4] = system: Diabrotica balteata, (Corn root worm); test: Diabrotica balteata maize sprout spray test, L2 larvae; conditions: 96 h
From the text: as §1

[5] = system: Euschistus heros (Neotropical Brown Stink Bug); test: Euschistus heros soybean plant spray test, N2 nymphs; conditions: 120 h, read-out: mortality of Euschistus heros
From the text: as §1

[6] = system: Myzus persicae (Green peach aphid); test: Myzus persicae sunflower leaf disc spray test; conditions: foliar, 144 h, read-out: mortality of Myzus persicae
From the text: as §1

[7] = system: Thrips tabaci (Onion thrips); test: Thrips tabaci sunflower leaf disc spray test; conditions: foliar, 144 h, application rate of 200 ppm, mortality 6 days after infestation, mixed ages
From the text: as §1

[8] = system: Tetranychus urticae (Two-spotted spider mite); test: Tetranychus urticae bean leaf disc spray test; conditions: foliar, 192 h, application rate of 200 ppm, mortality on mixed population (mobile stages) 8 days after infestation
From the text: as §1

[9] = application rate of 200 ppm, 3 days after infestation, L1 larvae, read-out: mortality
[10] = application rate of 200 ppm, 4 days after infestation, L2 larvae, read-out: mortality
[11] = application rate of 12.5 ppm, 5 days after infestation, N2 nymphs
[12] = application rate of 200 ppm, leaf disc spray, 6 DAT
[13] = Application rate: 12.5ppm, sucrose solution, 5 days after infestation

| SMILES | mortality at 12.5 ppm [1] [%] | mortality at 200 ppm [2] [%] | pest or weed control at 200 ppm [3] [%] | mortality at 200 ppm [4] [%] | mortality at 12.5 ppm [5] [%] | mortality at 200 ppm [6] [%] | pest or weed control at 200 ppm [7] [%] | pest or weed control at 200 ppm [8] [%] | mortality at 200 ppm [2, 9] [%] | mortality at 200 ppm [4, 10] [%] | mortality at 12.5 ppm [5, 11] [%] | mortality at 200 ppm [6, 12] [%] | mortality at 12.5 ppm [1, 13] [%] |
| --- | --- | --- | --- | --- | --- | --- | --- | --- | --- | --- | --- | --- | --- |
| Cn1nc(C(F)(F)C(F)(F)F)c(C(F)(F)F)c1-c1cc(-c2ccc(Cl)c(C(=O)NC3(C#N)CC3)c2)no1 [Compound 3, 2-chloro-N-(1-cyanocyclopropyl)-5-[5-[2-methyl-5-(1,1,2,2,2-pentafluoroethyl)-4-(trifluoromethyl)pyrazol-3-yl]isoxazol-3-yl]benzamide] | ≥ 50 | ≥ 80 | ≥ 80 | ≥ 80 | ≥ 80 | ≥ 50 | ≥ 80 | ≥ 80 |  |  |  |  |  |
| Cn1nc(C(F)(F)C(F)(F)F)c(C(F)(F)F)c1-c1cc(-c2ccc(Cl)c(C(=O)NC3CC3)c2)on1 [Compound 8, 2-chloro-N-cyclopropyl-5-[3-[2-methyl-5-(1,1,2,2,2-pentafluoroethyl)-4-(trifluoromethyl)pyrazol-3-yl]isoxazol-5-yl]benzamide] |  |  | ≥ 80 |  |  |  | ≥ 80 | ≥ 80 | ≥ 80 | ≥ 80 | ≥ 80 | ≥ 50 |  |
| Cn1nc(-c2ccc(Cl)c(C(=O)NC3CC3)c2)cc1-c1c(C(F)(F)F)c(C(F)(F)C(F)(F)F)nn1C [Compound 39, 2-chloro-N-cyclopropyl-5-[1-methyl-5-[2-methyl-5-(1,1,2,2,2-pentafluoroethyl)-4-(trifluoromethyl)pyrazol-3-yl]pyrazol-3-yl]benzamide] |  |  | ≥ 80 |  |  |  | ≥ 80 | ≥ 80 | ≥ 80 | ≥ 80 | ≥ 80 |  | ≥ 80 |
| Cn1nc(C(F)(F)C(F)(F)F)c(C(F)(F)F)c1-c1cc(-c2ccc(Cl)c(C(=O)NC3CC3)c2)sn1 [Compound 43, 2-chloro-N-cyclopropyl-5-[3-[2-methyl-5-(1,1,2,2,2-pentafluoroethyl)-4-(trifluoromethyl)pyrazol-3-yl]isothiazol-5-yl]benzamide] |  |  | ≥ 80 |  |  |  | ≥ 80 | ≥ 80 | ≥ 80 | ≥ 80 | ≥ 80 | ≥ 50 | ≥ 80 |
| Cn1nc(C(F)(F)C(F)(F)F)c(C(F)(F)F)c1-c1cc(-c2ccc(Cl)c(C(=O)NC3(C(=O)O)CC3)c2)on1 [Compound 75, 1-[[2-chloro-5-[3-[2-methyl-5-(1,1,2,2,2-pentafluoroethyl)-4-(trifluoromethyl)pyrazol-3-yl]isoxazol-5-yl]benzoyl]amino]cyclopropanecarboxylic acid] |  |  |  |  |  |  | ≥ 80 |  |  | ≥ 80 | ≥ 80 | ≥ 50 | ≥ 80 |
| Cn1nc(C(F)(F)C(F)(F)F)c(C(F)(F)F)c1-c1cc(-c2ccc(Cl)c(C(=O)NC3(C(N)=S)CC3)c2)on1 [Compound 76, N-(1-carbamothioylcyclopropyl)-2-chloro-5-[3-[2-methyl-5-(1,1,2,2,2-pentafluoroethyl)-4-(trifluoromethyl)pyrazol-3-yl]isoxazol-5-yl]benzamide] |  |  | ≥ 80 |  |  |  | ≥ 80 | ≥ 80 | ≥ 80 | ≥ 80 | ≥ 80 | ≥ 50 | ≥ 80 |
| Cn1nc(C(F)(F)C(F)(F)F)c(C(F)(F)F)c1-c1cc(-c2ccc(Cl)c(C(=O)NC3(C(N)=O)CC3)c2)on1 [Compound 77, N-(1-carbamoylcyclopropyl)-2-chloro-5-[3-[2-methyl-5-(1,1,2,2,2-pentafluoroethyl)-4-(trifluoromethyl)pyrazol-3-yl]isoxazol-5-yl]benzamide] |  |  | ≥ 80 |  |  |  | ≥ 80 | ≥ 80 | ≥ 80 |  | ≥ 80 | ≥ 50 | ≥ 80 |
| Cn1nc(C(F)(F)C(F)(F)F)c(C(F)(F)F)c1-c1cc(-c2ccc(Cl)c(C(=O)N[C@H]3C[C@@H]3C(F)(F)F)c2)on1 [Compound 80, 2-chloro-5-[3-[2-methyl-5-(1,1,2,2,2-pentafluoroethyl)-4-(trifluoromethyl)pyrazol-3-yl]isoxazol-5-yl]-N-[(1S,2S)-2-(trifluoromethyl)cyclopropyl]benzamide] |  |  | ≥ 80 |  |  |  | ≥ 80 | ≥ 80 | ≥ 80 | ≥ 80 | ≥ 80 | ≥ 50 |  |
| Cn1nc(C(F)(F)C(F)(F)F)c(C(F)(F)F)c1-c1cc(-c2ccc(Cl)c(C(=O)NC3CC3F)c2)on1 (centres unmarked) [Compound 81, 2-chloro-N-(2-fluorocyclopropyl)-5-[3-[2-methyl-5-(1,1,2,2,2-pentafluoroethyl)-4-(trifluoromethyl)pyrazol-3-yl]isoxazol-5-yl]benzamide] |  |  | ≥ 80 |  |  |  | ≥ 80 | ≥ 80 | ≥ 80 | ≥ 80 | ≥ 80 | ≥ 50 | ≥ 80 |
| CCNC(=O)c1cc(-c2cc(-c3c(C(F)(F)F)c(C(F)(F)C(F)(F)F)nn3C)no2)ccc1Cl [Compound 90, 2-chloro-N-ethyl-5-[3-[2-methyl-5-(1,1,2,2,2-pentafluoroethyl)-4-(trifluoromethyl)pyrazol-3-yl]isoxazol-5-yl]benzamide] |  |  | ≥ 80 |  |  |  | ≥ 80 | ≥ 80 | ≥ 80 | ≥ 80 | ≥ 80 | ≥ 50 |  |
| CNC(=O)c1cc(-c2cc(-c3c(C(F)(F)F)c(C(F)(F)C(F)(F)F)nn3C)no2)ccc1Cl [Compound 92, 2-chloro-N-methyl-5-[3-[2-methyl-5-(1,1,2,2,2-pentafluoroethyl)-4-(trifluoromethyl)pyrazol-3-yl]isoxazol-5-yl]benzamide] |  |  | ≥ 80 |  |  |  | ≥ 80 | ≥ 80 | ≥ 80 | ≥ 80 |  | ≥ 50 | ≥ 80 |
| CC(C)NC(=O)c1cc(-c2cc(-c3c(C(F)(F)F)c(C(F)(F)C(F)(F)F)nn3C)no2)ccc1Cl [Compound 93, 2-chloro-N-isopropyl-5-[3-[2-methyl-5-(1,1,2,2,2-pentafluoroethyl)-4-(trifluoromethyl)pyrazol-3-yl]isoxazol-5-yl]benzamide] |  |  | ≥ 80 |  |  |  | ≥ 80 | ≥ 80 | ≥ 80 | ≥ 80 | ≥ 80 |  | ≥ 80 |
